Data taken from ChEMBL document CHEMBL1150231, “New sesquiterpene carbonimidic dichlorides and related compounds from the sponge Stylotella aurantium” (J Nat Prod, 2001).

Assays:
Assay type in all cases: functional, cell-based
SK-MEL-28 = experiment: Cytotoxicity against human SK-MEL-28 cells
P388 = experiment: Cytotoxicity against mouse P388 cells
A549 = experiment: Cytotoxicity against human A549 cells
HT-29 = experiment: Cytotoxicity against human HT-29 cells

Measured: IC50

CC1(C)[C@@H](Cl)[C@@H](O)C[C@]2(C)C/C(=C\C=O)CC[C@@H]12
0.1 µg/mL: all assays above

C=C(CC[C@@H]1C(=C)CC[C@H](Cl)C1(C)C)C(Cl)CN=C(Cl)Cl (some centres not stated)
0.1 µg/mL: all assays above

CC1(C)[C@@H](Cl)[C@@H](O)C[C@]2(C)C/C(=C/C=O)CC[C@@H]12
0.1 µg/mL: all assays above
